Two compounds from US12617864B2, “Methods of activating and proliferating exhausted CD8 T cells, CD8 T cells with enhanced activity prepared by the same, and uses thereof” (Medgene Therapeutics, Inc., priority 2021, dated 2026) can be followed below.

For one experiment, the system named is Klf4 gene. The experiment in a line: Klf4 gene expression in CD8 T cells treated with APTO-253. The settings on record: 3 μM APTO-253 for 3 days (72 hours) during activation; compared to PBS-treated CD8 T cells. The format is cell-based, mice. On the procedure:
(§1) Accordingly, in the same manner as above, after separating naïve CD8 T cells, naïve CD8 T cells were seeded on a plate coated with anti-CD3 antibody and in the process of activation, anti-CD28 antibody (2 μg/ml) and mIL-2 (100 U/ml) was treated with 3 μM of APTO-253 (MedChemExpress, LLC). Then, it was cultured for 72 hours in a 37° C. 5% CO2 cell incubator. After completion of the culture, the cells were transferred to a 15 ml centrifuge tube, and the volume was adjusted to 3 ml by adding RPMI medium. After that, 3 ml of Histopaque (Sigma) was carefully placed in the lower layer. Then, centrifugation was carried out for 30 minutes at 25° C. at 2,000 rpm, and at this time, acceleration and deceleration were set to a minimum. After centrifugation, the culture solution of the upper layer was removed, and the cells present at the interface were recovered, transferred to a 15 ml centrifuge tube, resuspended in 10 ml of PBS, and centrifuged for 5 minutes at 4° C. and 1,500 rpm. After centrifugation, the supernatant was removed, the cell pellet was washed once more with 10 mL of PBS and centrifuged for 5 minutes at 4° C. and 1,500 rpm. After centrifugation, the supernatant was removed, the cell pellet was resuspended in an appropriate amount of PBS, and the cells were counted. […]

A further experiment deals with MC38 cancer cells. Put plainly: Mouse tumor model: MC38 in Rag2 KO mice given CD8 T cells treated with APTO-253. The settings on record: 5×10^5 CD8 T cells treated ex vivo with APTO-253 for 3 days, i.v. the day after 3×10^5 MC38; until day 15; vs PBS-treated CD8 T cells. On the procedure: as §1
In experiment [1] the test system is CD8 T cells from OT-I transgenic mice. The experiment in a line: In vitro exhaustion experiment: repeated OVA peptide stimulation of CD8 T cells, gene expression by qRT-PCR. The format is cell-based. The settings on record: repeated stimulation+IL-21 treatment group, OVA peptide 10 ng/ml for 5 days. Here is the method:
To this end, the present inventors specifically isolated CD8 T cells from OT-I transgenic mice having OVA (ovalbumin)-peptide-specific T cell receptor (TCR) and repeatedly treated the OVA peptide for 5 days. All experimental sets were treated with IL-15 (5 ng/ml) and IL-7 (5 ng/ml) to increase the viability of CD8 T cells. After treatment with OVA peptide (10 ng/ml) and washing the next day, stimulation was repeatedly applied for 5 days in such a way that cytokines and OVA peptide were treated with the same composition again (repeated stimulation treatment group). At this time, as a control group, only a cytokine-treated group without OVA peptide treatment and a single stimulation treatment group in which OVA peptide (10 ng/ml) was treated for 2 days and washed, and then only cytokine was treated for 3 days were added. In addition, a set treated with IL-21, which is known to help activate CD8 T cells, was also added (repetitive stimulation+IL-21 treated group) (FIG. 1A). After 5 days, live CD8 T cells were isolated using a cell sorter, RNA was extracted, reverse transcribed into cDNA, and the expression levels of various genes were confirmed by qRT-PCR. […]
(In general: Real-time PCR tracks product formation cycle by cycle.)

As for `Cc1[nH]c2ccc(F)cc2c1-c1nc2c3cccnc3c3ncccc3c2[nH]1` [APTO-253, 2-(5-fluoro-2-methyl-1H-indol-3-yl)-1H-imidazo[4,5-f][1,10]phenanthroline], in the experiment on Klf4 gene, the “Klf4 gene expression level in CD8 T cells” value is on record as “increased Klf4 gene expression level”. Besides, in the experiment with MC38 cancer cells, the “tumor growth (tumor volume)” value is “decreased tumor growth”.

As to “IL-21: cytokine known to help activate CD8 T cells”, the “expression of the Klf4 gene” value in experiment [1] is on record as “significantly increased”. Further, in experiment [1] (compared with repeated stimulation group), the “expression of the Tox gene” value is on record as “decreased”.
